# From publication PMC5041982, “Small-molecule inhibition of STAT3 in radioresistant head and neck squamous cell carcinoma” (Oncotarget, 2016)
# Read-outs that look alike come from different tables or passages of the source.
# Assays:
# [1] = system: pSTAT5; experiment: Phosphoflow, G-CSF-induced pSTAT5 in Kasumi-1 cells; assay type: cell-based; conditions: mean, n ≥ 2, read-out: Ligand Induced Phosphorylation (Phosphoflow) pSTAT5 (G-CSF) IC50
# [2] = Log P; assay type: physicochemical
# [3] = system: HN30 cells; experiment: Anchorage independent growth (MTT); assay type: cell-based; conditions: Homo sapiens
# Description: (§1) GAPDH-normalized pSTAT3 or pSTAT1 values were divided by that for untreated cells and expressed in percentage. These values were plotted as a function of Log [M] compound, and IC50 values calculated using GraphPad. […] Viable cells quantitated using MTT. Relative % viability was measured by (viability after any treatment ÷ viability of untreated cells × 100) and plotted as a function of Log [M] […] C. […] Representative curves are shown.
# (§2) Cells were cultured in triplicates in complete DMEM ± drug, in ultra-low attachment 96 well plates for 72 hrs or cell-culture treated plates for 48 hrs and viable cells were quantitated using MTT. Optical density (OD) was measured at 590 nm using a 96-well multi-scanner (EL-800 universal microplate reader, BioTek Inc, VT, USA). Relative % viability (viability after any treatment ÷ viability of untreated cells × 100) was plotted along Y-axis. At least 2 replicates experiments were performed and were used for IC50 calculation using GraphPad software.
# [4] = system: SCC-35 cells; experiment: Anchorage independent growth (MTT); assay type: cell-based; conditions: Homo sapiens; SCC-35, 72 hrs; mean; read-out: IC50 Cell growth (MTT), anchorage independent
# Description: as §1, §2
# [5] = system: UM-SCC-17B cells; experiment: Anchorage independent growth (MTT); assay type: cell-based; conditions: Homo sapiens, 72 hrs
# Description: as §1, §2
# [6] = system: SCC-61 cells; experiment: Anchorage independent growth (MTT); assay type: cell-based; conditions: Homo sapiens; Figure 4C, SCC-61, 72 hrs; read-out: Anchorage Independent growth IC50, representative curve
# Description: as §1, §2
# [7] = system: STAT3/1 regulated genes; experiment: RNA-seq of UM-SCC-17B tumor xenografts; assay type: in vivo; conditions: UM-SCC-17B xenografts, nude mice
compound,measurement,setting,value
COc1ccc(S(=O)(=O)Nc2cc(-c3c(O)ccc4ccccc34)c(O)c3ccccc23)cc1 [Compound C188-9],IC50,[1],5.1 ± 3.6 µM
same,logP,[2],5.2
same,IC50,"[3]; Figure 4C, HN-30, 72 hrs, read-out: Anchorage Independent growth IC50, representative curve",4.3 µM
same,IC50,"[3]; HN30, 72 hrs, mean, read-out: IC50 Cell growth (MTT), anchorage independent",4.4 ± 0.1 µM
same,IC50,[4],10.8 µM
same,IC50,"[5]; mean, read-out: IC50 Cell growth (MTT), anchorage independent",0.7 ± 0.6 µM
same,IC50,"[5]; Figure 4C, read-out: Anchorage Independent growth IC50, representative curve",1.1 µM
same,IC50,[6],12.7 µM
same,"Fold Change, ADM",[7],1.8
same,"Fold Change, AKAP12",[7],2.9
same,"Fold Change, ALDH3A1",[7],2.6
same,"Fold Change, ANPEP",[7],3.7
same,"Fold Change, ATF3",[7],1.9
same,"Fold Change, BATF2",[7],−2.1
same,"Fold Change, CALML3",[7],−1.7
same,"Fold Change, CCL2",[7],5.1
same,"Fold Change, CCL20",[7],2.1
same,"Fold Change, CCNA1",[7],−2.3
same,"Fold Change, CCND3",[7],−1.6
same,"Fold Change, CLU",[7],−1.7
same,"Fold Change, CMPK2",[7],−2.1
same,"Fold Change, COL5A1",[7],1.7
same,"Fold Change, COL16A1",[7],1.8
same,"Fold Change, CXCL2",[7],2.9
same,"Fold Change, CXCL3",[7],2.6
same,"Fold Change, CYP1B1",[7],2.0
same,"Fold Change, DDX58",[7],−1.7
same,"Fold Change, DYNC1H1",[7],1.5
same,"Fold Change, EGR1",[7],2.0
same,"Fold Change, EPSTI1",[7],−2.2
same,"Fold Change, EREG",[7],1.8
same,"Fold Change, FOS",[7],2.0
same,"Fold Change, FOSB",[7],1.9
same,"Fold Change, GBP1",[7],−1.7
same,"Fold Change, HERC5",[7],−1.7
same,"Fold Change, HERC6",[7],−1.6
same,"Fold Change, HK2",[7],1.6
same,"Fold Change, HSPG2",[7],1.5
same,"Fold Change, IER3",[7],2.0
same,"Fold Change, IFI6",[7],−2.1
same,"Fold Change, IFI27",[7],−1.7
same,"Fold Change, IFI35",[7],−1.9
same,"Fold Change, IFI44",[7],−1.7
same,"Fold Change, IFI44L",[7],−2.3
same,"Fold Change, IFIT1",[7],−2.5
same,"Fold Change, IFIT2",[7],−2.2
same,"Fold Change, IFIT3",[7],−2.5
same,"Fold Change, IFIT5",[7],−1.6
same,"Fold Change, IFITM1",[7],−1.5
same,"Fold Change, IFITM3",[7],−1.5
same,"Fold Change, IGFBP3",[7],3.3
same,"Fold Change, IRF7",[7],−1.7
same,"Fold Change, ISG15",[7],−2.3
same,"Fold Change, KRT15",[7],−2.1
same,"Fold Change, LY6E",[7],−1.5
same,"Fold Change, MMP10",[7],−1.7
same,"Fold Change, MX1",[7],−1.9
same,"Fold Change, MX2",[7],−1.8
same,"Fold Change, NAV1",[7],1.6
same,"Fold Change, NEDD9",[7],1.9
same,"Fold Change, NNMT",[7],−2.3
same,"Fold Change, NOTCH4",[7],1.8
same,"Fold Change, NPTX2",[7],6.5
same,"Fold Change, NR4A2",[7],1.8
same,"Fold Change, NRP2",[7],1.9
same,"Fold Change, OAS1",[7],−2.1
same,"Fold Change, OAS2",[7],−1.8
same,"Fold Change, OASL",[7],−2.6
same,"Fold Change, PCDH17",[7],−3.7
same,"Fold Change, PDK1",[7],1.7
same,"Fold Change, PHLDA1",[7],1.8
same,"Fold Change, PLSCR1",[7],−1.8
same,"Fold Change, PSMB9",[7],−1.6
same,"Fold Change, PTGS2",[7],4.4
same,"Fold Change, SAMD9",[7],−1.7
same,"Fold Change, SCARA3",[7],−1.8
same,"Fold Change, SERPINB3",[7],−1.6
same,"Fold Change, SERTAD2",[7],1.6
same,"Fold Change, SFRP1",[7],−2.6
same,"Fold Change, SLC2A1",[7],1.7
same,"Fold Change, SLC2A3",[7],5.9
same,"Fold Change, SLC4A7",[7],1.8
same,"Fold Change, SLC7A11",[7],1.6
same,"Fold Change, SLPI",[7],−1.6
same,"Fold Change, SMAD9",[7],2.7
same,"Fold Change, SP110",[7],−1.6
same,"Fold Change, SPOCK3",[7],−5.1
same,"Fold Change, STC1",[7],1.8
same,"Fold Change, TGFBR3",[7],1.5
same,"Fold Change, THBS1",[7],2.2
same,"Fold Change, TNC",[7],2.9
same,"Fold Change, TRIM22",[7],−1.7
same,"Fold Change, TYMP",[7],−1.7
same,"Fold Change, UBE2L6",[7],−1.5
same,"Fold Change, UPK1B",[7],−1.9
same,"Fold Change, USP18",[7],−1.9
same,"Fold Change, VEGFA",[7],2.0
same,"Fold Change, VLDLR",[7],1.7
